# From publication PMC8816891, “High-throughput cell-based assays for identifying antagonists of multiple smoking-associated human nicotinic acetylcholine receptor subtypes” (SLAS discovery : advancing life sciences R & D, 2021)
# Structures can show the parent of a compound that is named as a salt. Where two headings read alike, the source gives them in different places.
# Tests used:
# human α4β2-nAChR [1] = target: T1, human α4β2-nAChR (Homo sapiens, UniProt P17787+P43681); assay: cell-based
# Method: As described in that prior publication, this SH-EP1-α6/3 β2β3-nAChR monoclone is maintained in medium supplemented with zeocin (0.25 mg/mL), hygromycin (0.13 mg/mL biologically active) and G418 (0.6 mg/mL) to maintain positive selection of transfectants, and cultured at low passage numbers (1–40 from our frozen stocks) to ensure stable expression of the phenotype.
# For the SH-EP1-α4 β2-nAChR and SH-EP1-α6/3 β2β3-nAChR lines: cells were seeded into 384-well black tissue culture plates (Corning #3712) at 7000 cells per well in 50 μl assay media using a microfill (BioTek). The plates were incubated overnight at 37 °C to allow cells to adhere to the plate, then transferred to 29 °C and incubated for ~72h to maximize receptor expression. On the compound addition day, medium was aspirated and plates washed one time with wash buffer (1x HBSS with 20 mM HEPES adjusted to pH 7.4) using a BioTek ELx405 Select CW Plate Washer. Twenty-five microliters of 0.5x FLIPR Membrane Potential dye (Molecular Devices, R8034; prepared in wash buffer) was added to the plates using a microfill. The plates were further incubated at 29 °C for 60 min and background fluorescence was measured (Envision, Perkin Elmer). […] Plates were then incubated at room temperature for 20 min and fluorescence was measured again. Background fluorescence was subtracted from the final fluorescence read during data analysis.
# EC50 values were calculated using nonlinear regression analysis via GraphPad Prism 7 (GraphPad software, Inc.).
# After subtracting background fluorescence from fluorescent read for each plate well, the raw data were converted into a list and all plates were appended by run. For analysis purposes, each data point was annotated with well coordinate, well type, compound identifier, titer plate barcode, run identifier, date, and protocol information. Basic statistics and QC criteria were calculated within TIBCO Spotfire (v7.0.0). Basic statistics of control wells were examined by well type, by run, plate, and row/column to monitor run-to-run and plate-to-plate variation, and to exclude possible experimental issues such as striping. […] Concordance between replicates was assessed using linear regression. For each test well, the percentage of inhibition was obtained by subtracting the normalized fluorescent signal (NFS), expressed as a percentage, from 100%.
# human α6/3β2β3-nAChR [2] = target: T2, human α6/3β2β3-nAChR (Homo sapiens, UniProt P17787+P32297+Q05901+Q15825); assay: membrane potential dye assay, SH-EP1-α6/3β2β3-nAChR cells; assay type: cell-based
# T2 construct: expressed in transfected cells
# Method: (§1) Concordance between replicates was assessed using linear regression.
# human α3β4-nAChR [3] = target: T3, human α3β4-nAChR (Homo sapiens, UniProt P30926+P32297); assay: 86Rb+ efflux orthogonal assay, SH-EP1-α3β4-nAChR cells; assay type: cell-based; settings: 10 μM; validated = reduced specific efflux by > 3x SD vs no-drug control
# T3 construct: expressed in transfected cells
# Method: (§2) Cells were grown to confluence in 24-well plates (Falcon; 500 μl volume per well). The evening before each assay was to be performed, the medium was removed and replaced with 250 μl per well of complete medium supplemented with ~350,000 cpm of ^86Rb^+ (NEN; counted at 40% efficiency using Cerenkov counting and the Packard TriCarb 1900 Liquid Scintillation Analyzer). This allowed overnight loading of cells with tracer.
# (§3) Determinations of antagonist efficacy were performed in triplicate in each plate, and each antagonist was tested in three separate experiments. […] Specific efflux was then taken as the difference in control samples between total and non-specific ^86Rb^+ efflux, and was used to calculate the efficacy of blocking specific efflux by the test compounds.
# (§4) Fig. 4. Validation and specificity testing of HTS antagonist hits using an orthogonal assay. […] (A) All plates were normalized to internal maximum and minimum controls, as described in the Materials and Methods section. […] Activity measured at α3β4-nAChR is shown with blue symbols, that at α4β2-nAChR with red symbols, and that at α6/3 β2 β3-nAChR with green symbols. Dashed lines are color-matched to data symbols and designate the 3 X SD thresholds above the no-antagonist controls, used to determine validation of antagonist activity in each of the assays.
# human α6/3β2β3-nAChR [4] = target: T2, human α6/3β2β3-nAChR; assay: 86Rb+ efflux orthogonal assay, SH-EP1-α6/3β2β3-nAChR cells; assay type: cell-based; settings: 10 μM; validated = reduced specific efflux by > 3x SD vs no-drug control
# Method: as §2, §3, §4
# human α4β2-nAChR [5] = target: T1, human α4β2-nAChR; assay: 86Rb+ efflux orthogonal assay, SH-EP1-α4β2-nAChR cells; assay type: cell-based; set-up: expressed in transfected cells; settings: 10 μM; validated = reduced specific efflux by > 3x SD vs no-drug control
# Method: Cells were grown to confluence in 24-well plates (Falcon; 500 μl volume per well). The evening before each assay was to be performed, the medium was removed and replaced with 250 μl per well of complete medium supplemented with ~350,000 cpm of ^86Rb^+ (NEN; counted at 40% efficiency using Cerenkov counting and the Packard TriCarb 1900 Liquid Scintillation Analyzer). This allowed overnight loading of cells with tracer. The assay was based on a proven, routine ^86Rb^+ efflux assay “flip-plate” protocol that includes 1500 nM atropine to exclude possible contributions of muscarinic acetylcholine receptors, with test compound or control solutions applied for 30 s.
# Determinations of antagonist efficacy were performed in triplicate in each plate, and each antagonist was tested in three separate experiments. […] Both determinations of non-specific efflux were equivalent. Specific efflux was then taken as the difference in control samples between total and non-specific ^86Rb^+ efflux, and was used to calculate the efficacy of blocking specific efflux by the test compounds.
# Fig. 4. Validation and specificity testing of HTS antagonist hits using an orthogonal assay. […] Activity measured at α3β4-nAChR is shown with blue symbols, that at α4β2-nAChR with red symbols, and that at α6/3 β2 β3-nAChR with green symbols. […]
# human α3β4-nAChR [6] = target: T3, human α3β4-nAChR; assay: membrane potential dye assay, SH-EP1-α3β4-nAChR cells; assay type: cell-based
# Method: as §1
# [7] = IC50, 5 min incubation, in the presence of 500nM of nicotine
# [8] = IC50, 10 min incubation, in the presence of 500nM of nicotine
# [9] = IC50, 20 min incubation, in the presence of 500nM of nicotine
# [10] = IC50, 25 min incubation, in the presence of 500nM of nicotine
# [11] = average IC50 across all time-points, averaged over 5-30 min reads, nicotine at EC90
# [12] = read-out: pre-determined EC90 value
# T3 sequence (P32297 32-505): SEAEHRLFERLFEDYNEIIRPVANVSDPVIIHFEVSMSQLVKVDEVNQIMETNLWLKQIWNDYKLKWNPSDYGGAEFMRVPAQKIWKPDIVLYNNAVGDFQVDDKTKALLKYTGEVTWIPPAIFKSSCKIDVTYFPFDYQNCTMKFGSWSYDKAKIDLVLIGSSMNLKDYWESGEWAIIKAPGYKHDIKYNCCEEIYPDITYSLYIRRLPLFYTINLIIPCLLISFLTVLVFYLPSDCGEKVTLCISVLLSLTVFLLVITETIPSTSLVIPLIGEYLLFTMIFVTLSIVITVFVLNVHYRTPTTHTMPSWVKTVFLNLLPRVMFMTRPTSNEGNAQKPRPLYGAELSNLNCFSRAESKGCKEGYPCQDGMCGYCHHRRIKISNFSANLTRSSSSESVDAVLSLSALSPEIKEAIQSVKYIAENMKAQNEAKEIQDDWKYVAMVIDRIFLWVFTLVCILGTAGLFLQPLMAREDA
# T3 sequence (P30926 22-498): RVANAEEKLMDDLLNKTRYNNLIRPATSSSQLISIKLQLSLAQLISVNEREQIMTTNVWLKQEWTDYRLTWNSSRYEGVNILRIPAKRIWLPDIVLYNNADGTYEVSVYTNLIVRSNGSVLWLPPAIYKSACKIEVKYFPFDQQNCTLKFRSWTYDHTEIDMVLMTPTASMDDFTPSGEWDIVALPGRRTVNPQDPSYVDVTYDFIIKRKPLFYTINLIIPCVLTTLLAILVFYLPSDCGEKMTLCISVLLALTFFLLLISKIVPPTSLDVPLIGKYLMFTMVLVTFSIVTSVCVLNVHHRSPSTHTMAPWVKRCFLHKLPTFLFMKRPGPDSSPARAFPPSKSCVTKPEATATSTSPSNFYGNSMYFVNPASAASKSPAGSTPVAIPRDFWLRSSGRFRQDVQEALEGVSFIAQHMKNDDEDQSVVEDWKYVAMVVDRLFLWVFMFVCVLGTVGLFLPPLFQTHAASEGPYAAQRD
# T1 sequence (P43681 29-627 limits assumed): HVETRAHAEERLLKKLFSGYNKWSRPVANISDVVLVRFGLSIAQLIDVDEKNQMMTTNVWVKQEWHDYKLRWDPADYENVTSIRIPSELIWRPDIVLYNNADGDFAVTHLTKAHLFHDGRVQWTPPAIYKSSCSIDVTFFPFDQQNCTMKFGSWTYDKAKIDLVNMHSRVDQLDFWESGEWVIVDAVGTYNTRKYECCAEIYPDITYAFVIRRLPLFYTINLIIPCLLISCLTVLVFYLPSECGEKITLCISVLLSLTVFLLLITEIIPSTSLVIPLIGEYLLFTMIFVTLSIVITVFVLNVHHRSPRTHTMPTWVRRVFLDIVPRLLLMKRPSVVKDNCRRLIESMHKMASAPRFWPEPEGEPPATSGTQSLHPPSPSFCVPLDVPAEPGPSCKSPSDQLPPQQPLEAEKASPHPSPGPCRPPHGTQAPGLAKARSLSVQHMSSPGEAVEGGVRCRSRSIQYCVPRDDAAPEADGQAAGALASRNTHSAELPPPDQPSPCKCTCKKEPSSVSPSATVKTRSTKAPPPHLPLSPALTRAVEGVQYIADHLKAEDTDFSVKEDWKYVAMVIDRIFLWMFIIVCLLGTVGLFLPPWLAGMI
# T1 sequence (P17787 26-502): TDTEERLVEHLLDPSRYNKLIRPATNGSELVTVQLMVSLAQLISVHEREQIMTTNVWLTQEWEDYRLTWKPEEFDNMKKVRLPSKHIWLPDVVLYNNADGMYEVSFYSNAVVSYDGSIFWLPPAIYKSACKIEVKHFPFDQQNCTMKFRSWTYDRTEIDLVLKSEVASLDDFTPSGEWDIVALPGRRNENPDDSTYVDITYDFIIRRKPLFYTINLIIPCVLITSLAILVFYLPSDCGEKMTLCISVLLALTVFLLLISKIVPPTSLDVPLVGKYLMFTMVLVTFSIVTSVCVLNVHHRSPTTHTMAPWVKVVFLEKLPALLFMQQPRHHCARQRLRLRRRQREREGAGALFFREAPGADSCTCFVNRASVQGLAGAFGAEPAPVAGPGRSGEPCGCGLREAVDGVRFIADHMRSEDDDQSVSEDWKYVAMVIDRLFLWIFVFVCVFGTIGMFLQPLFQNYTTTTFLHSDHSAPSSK
# T2 sequence (Q15825+P32297 fused with the stated changes): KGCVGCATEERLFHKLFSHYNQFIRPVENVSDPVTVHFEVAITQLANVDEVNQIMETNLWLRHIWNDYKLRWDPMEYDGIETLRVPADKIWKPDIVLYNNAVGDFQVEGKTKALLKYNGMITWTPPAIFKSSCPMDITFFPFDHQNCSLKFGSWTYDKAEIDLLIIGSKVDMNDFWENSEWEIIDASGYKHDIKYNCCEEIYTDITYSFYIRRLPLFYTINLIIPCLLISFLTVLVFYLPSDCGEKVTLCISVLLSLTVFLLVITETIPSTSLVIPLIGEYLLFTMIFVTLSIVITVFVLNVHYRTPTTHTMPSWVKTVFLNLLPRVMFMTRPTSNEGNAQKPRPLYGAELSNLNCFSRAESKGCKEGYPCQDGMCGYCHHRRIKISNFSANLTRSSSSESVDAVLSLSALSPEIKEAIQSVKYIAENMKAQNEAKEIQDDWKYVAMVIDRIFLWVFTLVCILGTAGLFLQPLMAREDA
# T2 sequence (P17787 26-502): as the sequence (P17787 26-502) above
# T2 sequence (Q05901 22-458): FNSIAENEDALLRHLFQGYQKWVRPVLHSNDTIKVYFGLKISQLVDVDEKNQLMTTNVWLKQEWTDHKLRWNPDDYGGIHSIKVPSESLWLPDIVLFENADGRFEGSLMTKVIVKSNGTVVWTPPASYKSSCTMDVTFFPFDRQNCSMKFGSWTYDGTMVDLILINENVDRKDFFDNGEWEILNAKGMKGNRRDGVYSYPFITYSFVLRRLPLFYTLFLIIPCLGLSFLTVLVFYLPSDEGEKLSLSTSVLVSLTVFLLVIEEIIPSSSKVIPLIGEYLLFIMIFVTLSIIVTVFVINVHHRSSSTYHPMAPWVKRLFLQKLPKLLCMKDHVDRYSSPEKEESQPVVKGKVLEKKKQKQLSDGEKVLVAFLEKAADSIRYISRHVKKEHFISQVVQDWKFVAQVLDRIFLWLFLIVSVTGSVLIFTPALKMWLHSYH
SMILES,IC50 (human α4β2-nAChR [1]; IC50) [nM],IC50 (human α4β2-nAChR [1]; [7]) [nM],IC50 (human α4β2-nAChR [1]; [8]) [nM],IC50 (human α4β2-nAChR [1]; [9]) [nM],IC50 (human α4β2-nAChR [1]; [10]) [nM],IC50 (human α4β2-nAChR [1]; [11]) [nM],further results
C[N+](C)(C)CCCCCC[N+](C)(C)C [hexamethonium],71600,98300,100000,47900,38900,65800 ± 28800,"IC50 (human α4β2-nAChR [1]; IC50, 30 min incubation, in the presence of 500nM of nicotine): 37400 nM"
CNC1(C)C2CCC(C2)C1(C)C (stereo not drawn) [mecamylamine],896,2250,1090,919,983,1210 ± 520,"IC50 (human α6/3β2β3-nAChR [2]; in the presence of 500 nM nicotine (EC90), read-out: IC50 (α6/3β2β3), Fig. 2D): 1670 nM; IC50 (human α6/3β2β3-nAChR [2]; nicotine at EC90, read-out: average IC50, comparison across subtypes): 1670 nM; antagonist hit identified in HTS and validated by 86Rb+ efflux (human α3β4-nAChR [3]): identified and validated as a hit; antagonist hit identified in HTS and validated by 86Rb+ efflux (human α6/3β2β3-nAChR [4]): identified and validated as a hit; IC50 (human α4β2-nAChR [1]; IC50 (α4β2), Fig. 2D, in the presence of 500 nM nicotine (EC90), subtype comparison): 537 nM; IC50 (human α4β2-nAChR [1]; average IC50, comparison across subtypes, nicotine at EC90): 540 nM; antagonist hit identified in HTS and validated by 86Rb+ efflux (human α4β2-nAChR [5]): identified and validated as a hit"
"CN1CCC[C@H]1c1cccnc1 [nicotine, (−)-nicotine]",,,,,,,EC90 (human α3β4-nAChR [6]; [12]): 20000 nM; EC90 (human α6/3β2β3-nAChR [2]; [12]): 500 nM; EC90 (human α4β2-nAChR [1]; [12]): 500 nM
CNCCC=C1c2ccccc2CCc2ccccc21 [nortriptyline hydrochloride],,,,,,,"antagonist hit call in pilot screen (human α3β4-nAChR [6]; test compound 10 μM with 20 μM nicotine (EC90), hit = signal below mean - 3 SD): identified as a hit"
